{"source": "patent US20230235378A1", "about": "“LZHEIMER'S DISEASE-SPECIFIC ALTERATIONS OF PROTEIN KINASE C EPSILON (PKC-EPSILON PROTEIN LEVELS” (WEST VIRGINIA UNIVERSITY BOARD OF GOVERNORS ON BEHALF OF …, priority 2010, published 2023)", "key": {"[1]": {"system": "Endothelin-converting enzyme (ECE)", "assay": "ECE assay in neuroblastoma cells (fluorimetric, McaBK2)", "format": "cell-based, human", "details": "bryostatin 0.27 nM, BR-101 1 μM, BR-111 1", "method": "ECE Assay. SH-5757 neuroblastoma cells were incubated with bryostatin (0.27 nM), BR-101 (DCP-LA) (1 μM), and BR-111 (DHA-CP6) (1 Endothelin-converting enzyme (ECE) was measured fluorimetrically using the method of Johnson and Ahn, Anal. Biochem. 2000; 286: 112-118. A sample of cell homogenate (20 μl) was incubated in 50 mM MES-KOH, pH 6.0, 0.01% C 12E10 (polyoxyethylene-10-lauryl ether), and 15 μM McaBK2 (7-Methoxycoumarin-4-acetyl [Ala7-(2,4-Dinitrophenyl)Lys9]-bradykinin trifluoroacetate salt) (Sigma-Aldrich). After 60 min at 37° C., the reaction was quenched by adding trifluoroacetic acid to 0.5%. The sample was diluted to 1.4 ml with water and the fluorescence was measured at ex=334 nm, em=398 nm."}, "Aß [2]": {"system": "Aß", "assay": "Aß production in N2a neuroblastoma cells transfected with human APPSwe/PS1D (Aß 1-42 ELISA)", "format": "cell-based, mouse", "details": "for levels of both intracellular and secreted Aß: 24 h incubation, various concentrations", "method": "(§1) Aß Measurement and Cell Viability Assay. Aß was measured using an Aß 1-42 human fluorimetric ELISA kit (Invitrogen) according to the manufacturer's instructions. Results were measured in a Biotek Synergy HT microplate reader. AlamarBlue and CyQuant NF (Invitrogen) according to the manufacturer's instructions.\nTo measure the effects of PKC activation on Aß production, we used mouse neuro2a (N2a) neuroblastoma cells transfected with human APPSwe/PS1D, which produce large quantities of Aβ. Petanceska et al., J. Neurochem. 1996; 74: 1878-84. […] With bryostatin, which activates PKC by binding to the diacylglycerol-binding site, the inhibition was biphasic, with concentrations of 20 nM or higher producing no net effect. This may be explained by the ability of this class of PKC activators to downregulate PKC when used at high concentrations."}, "Aß [3]": {"system": "Aß", "assay": "Degradation of exogenous monomeric Aβ-42 in SH-SY5Y cells", "format": "cell-based, human", "details": "0.01 to 10 μM; 100 nM exogenous monomeric Aβ-42; 24 h", "method": "as §1\nTo determine whether the reduced levels of Aß caused by PKC activators were due to inhibition of Aß synthesis or activation of Aß degradation, we applied BR-111 (DHA-CP6) (0.01 to 10 μM) and low concentrations (100 nM) of exogenous monomeric Aβ-42 to cultured SH-SY5Y cells. This concentration of Aß is too low to produce measurable toxicity or cell death. Since SH-SY5Y cells produce only trace amounts of Aβ, this experiment was an effective test of the ability of PKC activators to enhance Aß degradation. By 24 h, most of the Aß had been taken up by the cells and the concentration of Aß in the culture medium was undetectable."}, "[4]": {"assay": "Cell viability assay (alamar Blue and CyQuant staining)", "format": "cell-based", "method": "as §1"}, "TACE": {"system": "TACE", "assay": "TACE assay in cell homogenates of neuronal cells", "format": "cell-based", "details": "human SH-SY5Y, N2a mouse neuroblastoma cells, primary neurons from rat hippocampus", "method": "TACE Assay. TACE was measured by incubating 5 μl cell homogenate, 3 μl buffer (50 mM Tris-HCl 7.4 plus 25 mM NaCl plus 4% glycerol), and 1 μl of 100 μM TACE substrate IV (Aβz-LAQAVRSSSR-DPa) (Calbiochem) for 20 min at 37° in 1.5-ml polypropylene centrifuge tubes (Jin et al., Anal. Biochem. 2002; 302: 269-75). The reaction was stopped by cooling to 4° C. The samples were diluted to 1 ml and the fluorescence was rapidly measured (ex=320 nm, em=420 nm) in a Spex Fluorolog 2 spectrofluorometer.\nBuxbaum et al., J. Biol. Chem. 1998; 273: 27765-67; Etcheberrigaray et al., Proc. Natl. Acad. Sci. USA. 2006: 103:8215-20. However, many of these earlier studies were carried out in fibroblasts and other non-neuronal cell types, which appear to respond differently to PKC activators than neurons."}, "purified PKC": {"target": "T1, purified PKC (Homo sapiens, UniProt Q02156)", "T1 construct": "purchased Calbiochem", "T1 sequence (Q02156 1-737)": "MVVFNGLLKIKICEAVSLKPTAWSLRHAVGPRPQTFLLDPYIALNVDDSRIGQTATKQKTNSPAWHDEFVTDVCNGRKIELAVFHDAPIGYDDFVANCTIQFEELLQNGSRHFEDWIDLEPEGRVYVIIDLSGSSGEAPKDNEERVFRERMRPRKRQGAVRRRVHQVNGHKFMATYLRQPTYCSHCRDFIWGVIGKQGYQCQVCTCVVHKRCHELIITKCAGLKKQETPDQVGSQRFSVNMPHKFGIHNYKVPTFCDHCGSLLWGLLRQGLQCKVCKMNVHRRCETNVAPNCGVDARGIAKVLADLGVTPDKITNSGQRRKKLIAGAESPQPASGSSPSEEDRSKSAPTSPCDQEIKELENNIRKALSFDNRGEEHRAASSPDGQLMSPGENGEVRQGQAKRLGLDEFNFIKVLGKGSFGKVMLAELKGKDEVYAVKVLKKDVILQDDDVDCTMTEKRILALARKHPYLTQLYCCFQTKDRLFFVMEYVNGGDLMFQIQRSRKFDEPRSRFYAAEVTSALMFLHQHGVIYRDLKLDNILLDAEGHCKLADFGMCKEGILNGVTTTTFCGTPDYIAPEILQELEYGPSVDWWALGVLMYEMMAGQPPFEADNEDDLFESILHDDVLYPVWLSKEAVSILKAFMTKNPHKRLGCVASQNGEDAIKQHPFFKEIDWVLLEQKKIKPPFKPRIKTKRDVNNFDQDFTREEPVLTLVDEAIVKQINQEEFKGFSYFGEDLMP", "assay": "PKC isozyme specificity: purified PKC preincubated with compound, activity measured radiometrically", "format": "biochemical", "method": "(§2) Protein Kinase C Assay. Rat hippocampal cells were cultured and scraped in 0.2 ml homogenization buffer (20 mM Tris-HCl, pH 7.4, 50 mM NaF, 1 μg/ml leupeptin, and 0.1 mM PMSF) and homogenized by sonication in a Marsonix micro-probe sonicator (5 sec, 10 W). To measure PKC, 10 μl of cell homogenate or purified PKC isozyme (purchased from Calbiochem) was incubated for 15 min at 37° C. in the presence of 10 μM histones, 4.89 mM CaCl2, 1.2 μg/μl phosphatidyl-L-serine, 0.18 μg/μl 1,2-dioctanoyl-sn-glycerol, 10 mM MgCl2, 20 mM HEPES (pH 7.4), 0.8 mM EDTA, 4 mM EGTA, 4% glycerol, 8 μg/ml aprotinin, 8 μg/ml leupeptin, and 2 mM benzamidine. 0.5 μCi [γ-32P]ATP was added and 32P-phosphoprotein formation was measured by adsorption onto phosphocellulose as described previously. Nelson and Alkon, J. Neurochemistry. 1995; 65: 2350-57. For measurements of activation by BR-101 (DCP-LA) and similar compounds, PKC activity was measured in the absence of diacylglycerol and phosphatidylserine, as described by Kanno et al., and PKC δ, ε, η, and were measured in the absence of added EGTA and CaCl2, as described by Kanno et al., J. Lipid Res. 2006; 47: 1146-50. Low concentrations of Ca2+ are used because high Ca2+ interacts with the PKC phosphatidylserine binding site and prevents activation. For measurements of bryostatin activation, 1,2-diacylglycerol was omitted unless otherwise stated.\nTo determine their PKC isozyme specificity, the new compounds were preincubated with purified PKC for five minutes and the PKC activity was measured radiometrically."}, "α-secretase": {"system": "α-secretase", "details": "human fibroblasts, cited from earlier work"}, "rats": {"system": "rats", "details": "cited from earlier work"}, "PKC [5]": {"system": "PKC", "assay": "PKC in perforated fibers of AD transgenic mice (FIG. 8)", "format": "in vivo"}, "PKC [6]": {"system": "PKC", "assay": "PKC activity in cultured rat hippocampal H19-7/IGF-IR cells", "format": "cell-based", "method": "Cell Culture. Rat hippocampal H19-7/IGF-IR cells (ATCC, Manassas, Va.) were plated onto poly-L-lysine coated plates and grown at 35° C. in DMEM/10% FCS for several days until about 50% coverage was obtained. The cells were then induced to differentiate into a neuronal phenotype by replacing the medium with 5 ml N2 medium containing 10 ng/ml basic fibroblast growth factor at 39° C. and grown in T-75 flasks at 37° C. Human SH-SY5Y neuroblastoma cells (ATCC) were cultured in 45% F 12K/45% MEM/10% FCS. Mouse N2A neuroblastoma cells were cultured in DMEM/10% FCS without glutamine. Rat hippocampal neurons from 18-day-old embryonic\nas §2\nPKC activators that bind to the diacylglycerol binding site, including bryostatin, gnidimacrin, and phorbol esters, produce a transient activation of PKC activity, followed by a prolonged downregulation. Nelson et al., Trends in Biochem. Sci. 2009; 34: 136-45. This was confirmed in cultured rat hippocampal cells. Incubation of rat 1119-7/IGF-IR cells with (0.04 nM and 0.2 nM) bryostatin produced a 2-fold activation that lasted 30 min, followed by a 20% downregulation that returned to baseline by 24 h (data not shown). […] This sustained activation was only observed in primary neurons."}}, "note": "Where two headings read alike, the source gives them in different places."}
{"smiles": "CCC1CC1CC1CC1CC1CC1CC1CC1CC1CC1CC1CC1CCC(=O)OC", "note": "(stereo not shown) [BR-111, methyl-3-(2-((2-((2-((2-((2-((2-ethylcyclopropyl)methyl)cyclopropyl)methyl)cyclopropyl)methyl)-cyclopropyl)methyl)cyclopropyl)methyl)cyclopropyl)propanoate]", "values": [{"measurement": "change in ECE activity", "setting": "[1]", "value": "sustained increase"}, {"measurement": "levels of both intracellular and secreted Aß", "setting": "Aß [2]", "value": "markedly reduced"}, {"measurement": "concentration dependence of Aß inhibition", "setting": "Aß [2]; concentrations up to 10 to 100 μM, no evidence of downregulation at higher concentrations", "value": "monotonically increasing inhibition"}, {"measurement": "reduction of cellular levels of Aß", "setting": "Aß [3]", "value": "45-63%"}, {"measurement": "effect on cell survival or proliferation", "setting": "[4]", "value": "no effect"}, {"measurement": "change in TACE activity", "setting": "TACE", "value": "only produced small increases"}, {"measurement": "concentration needed to activate PKC, relative to BR-101 (DCP-LA)", "setting": "purified PKC; compared with BR-101 (DCP-LA)", "value": "approx. 100 times lower"}, {"measurement": "activation of purified PKC", "setting": "purified PKC; used as methyl esters", "value": "activated purified PKC to a similar extent"}]}
{"smiles": "CCC/C=C/C=C/C(=O)O[C@H]1/C(=C/C(=O)OC)C[C@H]2C[C@H]([C@@H](C)O)OC(=O)C[C@H](O)C[C@@H]3C[C@H](OC(C)=O)C(C)(C)[C@](O)(C[C@@H]4C/C(=C/C(=O)OC)C[C@H](/C=C/C(C)(C)[C@]1(O)O2)O4)O3", "note": "[bryostatin]", "values": [{"measurement": "change in ECE activity", "setting": "[1]", "value": "sustained increase"}, {"measurement": "levels of both intracellular and secreted Aß", "setting": "Aß [2]", "value": "markedly reduced"}, {"measurement": "increase of initial rate of α-secretase activity", "setting": "α-secretase; 10 μM", "value": 16, "unit": "fold"}, {"measurement": "increase of initial rate of α-secretase activity", "setting": "α-secretase; 100 μM", "value": 132, "unit": "fold"}, {"measurement": "change in TACE activity", "setting": "TACE", "value": "only produced small increases"}, {"measurement": "rate of learning", "setting": "rats", "value": "dramatically increase"}, {"measurement": "loss of PKC in perforated fibers", "setting": "PKC [5]", "value": "prevents the loss of PKC in perforated fibers"}, {"measurement": "downregulation of PKC following activation", "setting": "PKC [6]; 0.04 nM and 0.2 nM", "value": 20, "unit": "%"}, {"measurement": "time of return of PKC to baseline", "setting": "PKC [6]; 0.04 nM and 0.2 nM", "value": "≤ 24", "unit": "h"}, {"measurement": "activation of PKC activity", "setting": "PKC [6]; 0.04 nM and 0.2 nM, data not shown", "value": 2, "unit": "fold"}, {"measurement": "downregulation of PKC activity", "setting": "PKC [6]; 8 h, data not shown", "value": "at or near the baseline"}]}
